Literature values as cited in patent EP1249231B1, “Pharmaceutical formulations comprising anti-inflammatory compounds and use thereof” (VESIFACT AG, priority 2001, dated 2002).

Details: free acid; background statement

Löslichkeit in Wasser und im sauren Milieu des Magensaftes: schlecht löslich
SMILES: CC(C)Cc1ccc(C(C)C(=O)O)cc1 (stereo not shown) [Ibuprofen]
